Activity calls are given as the source filed them. The calls are words filed in the database; no cut-off is given here.
Key:
[1] = biological target: Cyclin-dependent kinase 8 (Homo sapiens) (UniProt P49336); experiment: Inhibition of N-terminal GST-tagged full length human recombinant CDK8 expressed in Sf9 insect cells at 1 uM incubated for 60 mins in presence of [gamma33P]ATP by microplate scintillation counter relative to control
[2] = biological target: Cyclin-dependent kinase 16 (Homo sapiens) (UniProt Q00536); experiment: Inhibition of His6-tagged full length human recombinant CDK16 expressed in Sf9 insect cells at 1 uM incubated for 60 mins in presence of [gamma33P]ATP by microplate scintillation counter relative to control
[3] = biological target: Mitogen-activated protein kinase 7 (Homo sapiens) (UniProt Q13164); experiment: Inhibition of N-terminal recombinant human ERK5 expressed in Sf9 insect cells at 1 uM incubated for 60 mins in presence of [gamma33P]ATP by microplate scintillation counter relative to control
[4] = biological target: Cyclin-dependent kinase 5 (Homo sapiens) (UniProt Q00535); experiment: Inhibition of N-terminal GST-tagged full length human recombinant CDK5 expressed in Sf9 insect cells at 1 uM incubated for 60 mins in presence of [gamma33P]ATP by microplate scintillation counter relative to control
[5] = biological target: T1, Serine/threonine-protein kinase TAO3 (Homo sapiens) (UniProt Q9H2K8); experiment: Inhibition of full length human recombinant TAOK3 expressed in baculovirus infected Sf9 cells at 1 uM incubated for 60 mins in presence of [gamma33P]ATP by microplate scintillation counter relative to control
T1 sequence (whole entry): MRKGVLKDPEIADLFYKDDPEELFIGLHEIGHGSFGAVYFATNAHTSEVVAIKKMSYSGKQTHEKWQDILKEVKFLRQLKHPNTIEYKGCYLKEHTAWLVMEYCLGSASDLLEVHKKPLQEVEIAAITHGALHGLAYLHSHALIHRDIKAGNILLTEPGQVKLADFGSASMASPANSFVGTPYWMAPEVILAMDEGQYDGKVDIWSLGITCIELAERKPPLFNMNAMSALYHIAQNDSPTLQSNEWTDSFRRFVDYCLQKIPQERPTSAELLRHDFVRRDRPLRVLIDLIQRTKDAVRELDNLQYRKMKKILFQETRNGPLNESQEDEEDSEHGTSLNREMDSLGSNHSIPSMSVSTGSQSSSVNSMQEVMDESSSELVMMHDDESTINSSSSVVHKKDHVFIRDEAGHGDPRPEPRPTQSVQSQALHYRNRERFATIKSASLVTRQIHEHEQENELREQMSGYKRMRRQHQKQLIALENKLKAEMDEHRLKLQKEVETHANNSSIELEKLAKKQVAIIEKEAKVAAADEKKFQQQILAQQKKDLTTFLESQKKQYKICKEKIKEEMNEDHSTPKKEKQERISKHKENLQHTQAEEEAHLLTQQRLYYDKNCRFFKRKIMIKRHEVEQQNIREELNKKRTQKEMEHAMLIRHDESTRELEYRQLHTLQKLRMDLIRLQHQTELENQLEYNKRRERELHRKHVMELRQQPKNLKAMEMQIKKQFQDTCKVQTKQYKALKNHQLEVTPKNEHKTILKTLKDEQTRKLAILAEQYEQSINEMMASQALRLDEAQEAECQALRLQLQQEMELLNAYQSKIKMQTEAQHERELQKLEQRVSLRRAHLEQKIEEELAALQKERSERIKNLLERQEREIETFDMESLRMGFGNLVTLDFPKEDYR

[6] = biological target: T2, Dual specificity tyrosine-phosphorylation-regulated kinase 1A (Homo sapiens, UniProt Q13627); experiment: Inhibition of human DYRK1A incubated for 90 mins in presence of ATP by Z-LYTE based FRET assay
[7] = biological target: T2, Dual specificity tyrosine-phosphorylation-regulated kinase 1A; experiment: Inhibition of human DYRK1A expressed in Sf9 insect cells at 1 uM incubated for 60 mins in presence of [gamma33P]ATP by microplate scintillation counter relative to control
[8] = biological target: Serine/threonine-protein kinase pim-1 (Homo sapiens) (UniProt P11309); experiment: Inhibition of His6-tagged full length human recombinant PIM1 expressed in Sf9 insect cells at 1 uM incubated for 60 mins in presence of [gamma33P]ATP by microplate scintillation counter relative to control
[9] = biological target: T3, Dual specificity tyrosine-phosphorylation-regulated kinase 1B (Homo sapiens, UniProt Q9Y463); experiment: Inhibition of human DYRK1B expressed in Sf9 insect cells at 1 uM incubated for 60 mins in presence of [gamma33P]ATP by microplate scintillation counter relative to control
Target sequence in this assay (Q9Y463 whole entry, looked up): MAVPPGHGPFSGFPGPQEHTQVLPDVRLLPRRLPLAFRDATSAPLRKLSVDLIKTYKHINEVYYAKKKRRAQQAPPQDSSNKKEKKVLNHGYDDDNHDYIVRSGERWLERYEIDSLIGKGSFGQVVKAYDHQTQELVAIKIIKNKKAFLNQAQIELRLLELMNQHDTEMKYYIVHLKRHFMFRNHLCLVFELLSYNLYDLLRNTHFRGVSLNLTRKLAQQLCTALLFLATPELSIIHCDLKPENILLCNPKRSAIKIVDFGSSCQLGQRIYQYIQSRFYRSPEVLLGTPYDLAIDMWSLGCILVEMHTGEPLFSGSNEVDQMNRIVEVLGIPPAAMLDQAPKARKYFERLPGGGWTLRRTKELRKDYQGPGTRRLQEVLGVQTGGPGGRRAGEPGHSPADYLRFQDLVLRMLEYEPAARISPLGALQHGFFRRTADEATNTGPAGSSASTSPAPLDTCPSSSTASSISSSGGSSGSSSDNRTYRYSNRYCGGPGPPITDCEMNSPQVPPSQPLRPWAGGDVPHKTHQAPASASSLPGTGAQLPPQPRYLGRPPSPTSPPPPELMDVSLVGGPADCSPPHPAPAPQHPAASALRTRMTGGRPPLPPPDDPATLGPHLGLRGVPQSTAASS

[10] = biological target: Cyclin-dependent kinase 6 (Homo sapiens) (UniProt Q00534); experiment: Inhibition of N-terminal GST-tagged full length human recombinant CDK6 expressed in Sf9 insect cells at 1 uM incubated for 60 mins in presence of [gamma33P]ATP by microplate scintillation counter relative to control
[11] = biological target: T3, Dual specificity tyrosine-phosphorylation-regulated kinase 1B; experiment: Inhibition of NanoLuc-fused human DYRK1B expressed in HEK293T cells using Nano-Glo as substrate incubated for 2 hrs by NanoBRET assay; format: cell-based
Target sequence in this assay (Q9Y463 whole entry): as the sequence (Q9Y463 whole entry, looked up) above

[12] = biological target: Serine/threonine-protein kinase pim-3 (Homo sapiens) (UniProt Q86V86); experiment: Inhibition of His6-tagged full length human recombinant PIM3 expressed in Sf9 insect cells at 1 uM incubated for 60 mins in presence of [gamma33P]ATP by microplate scintillation counter relative to control
[13] = biological target: T3, Dual specificity tyrosine-phosphorylation-regulated kinase 1B; experiment: Inhibition of human DYRK1B incubated for 130 mins in presence of ATP by ADP-Glo kinase assay
Target sequence in this assay (Q9Y463 whole entry): as the sequence (Q9Y463 whole entry, looked up) above

[14] = biological target: T4, Inhibitor of nuclear factor kappa-B kinase subunit alpha (Homo sapiens) (UniProt O15111); experiment: Inhibition of full length human recombinant IKKalpha expressed in baculovirus infected Sf9 cells at 1 uM incubated for 60 mins in presence of [gamma33P]ATP by microplate scintillation counter relative to control
T4 sequence (whole entry): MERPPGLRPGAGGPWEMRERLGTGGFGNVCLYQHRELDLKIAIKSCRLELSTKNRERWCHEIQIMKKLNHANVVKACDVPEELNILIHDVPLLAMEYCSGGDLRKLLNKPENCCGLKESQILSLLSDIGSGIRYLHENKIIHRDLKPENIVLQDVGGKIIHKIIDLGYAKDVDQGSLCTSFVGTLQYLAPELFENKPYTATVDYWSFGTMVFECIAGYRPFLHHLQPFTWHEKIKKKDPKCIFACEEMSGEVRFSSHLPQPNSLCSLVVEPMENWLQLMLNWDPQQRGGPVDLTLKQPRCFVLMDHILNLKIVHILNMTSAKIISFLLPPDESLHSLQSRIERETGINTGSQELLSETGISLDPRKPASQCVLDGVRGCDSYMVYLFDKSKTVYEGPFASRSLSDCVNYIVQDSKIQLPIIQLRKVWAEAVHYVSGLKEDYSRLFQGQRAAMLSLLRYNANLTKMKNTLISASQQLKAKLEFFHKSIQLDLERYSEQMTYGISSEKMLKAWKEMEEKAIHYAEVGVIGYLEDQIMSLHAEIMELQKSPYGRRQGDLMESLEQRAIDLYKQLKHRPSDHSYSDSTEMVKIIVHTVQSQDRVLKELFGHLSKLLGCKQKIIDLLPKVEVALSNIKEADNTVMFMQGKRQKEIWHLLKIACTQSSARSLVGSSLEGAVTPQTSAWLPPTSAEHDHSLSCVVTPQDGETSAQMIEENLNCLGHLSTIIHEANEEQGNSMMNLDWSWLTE

[15] = Inhibition of His6-tagged full length human recombinant CDK11 expressed in Sf9 insect cells at 1 uM incubated for 60 mins in presence of [gamma33P]ATP by microplate scintillation counter relative to control
[16] = biological target: T2, Dual specificity tyrosine-phosphorylation-regulated kinase 1A; experiment: Inhibition of NanoLuc-fused human DYRK1A expressed in HEK293 cells using Nano-Glo as substrate incubated for 2 hrs by NanoBRET assay; format: cell-based
[17] = biological target: Cyclin-dependent kinase 4 (Homo sapiens) (UniProt P11802); experiment: Inhibition of N-terminal GST-tagged full length human recombinant CDK4 expressed in Sf9 insect cells at 1 uM incubated for 60 mins in presence of [gamma33P]ATP by microplate scintillation counter relative to control
[18] = biological target: T5, Serine/threonine-protein kinase PRP4 homolog (Homo sapiens, UniProt Q13523); experiment: Inhibition of DNA-tagged human PRP4 expressed in Escherichia coli incubated for 1.5 hrs by KINOMEscan assay
HeLa [19] = experiment: Cytotoxicity against human HeLa cells assessed as reduction in cell viability at 30 uM incubated for 24 hrs in presence of staurosporine by MTT assay; format: functional, cell-based
HeLa [20] = experiment: Cytotoxicity against human HeLa cells assessed as cell viability at 30 uM incubated for 24 hrs by MTT assay; format: functional; conditions: read-out: Activity
[21] = biological target: T5, Serine/threonine-protein kinase PRP4 homolog; experiment: Inhibition of human PRP4 using casein as substrate at 1 uM incubated for 120 mins in presence of [gamma-33P-ATP] by radiometric scintillation assay

T5 sequence (Q13523 whole entry): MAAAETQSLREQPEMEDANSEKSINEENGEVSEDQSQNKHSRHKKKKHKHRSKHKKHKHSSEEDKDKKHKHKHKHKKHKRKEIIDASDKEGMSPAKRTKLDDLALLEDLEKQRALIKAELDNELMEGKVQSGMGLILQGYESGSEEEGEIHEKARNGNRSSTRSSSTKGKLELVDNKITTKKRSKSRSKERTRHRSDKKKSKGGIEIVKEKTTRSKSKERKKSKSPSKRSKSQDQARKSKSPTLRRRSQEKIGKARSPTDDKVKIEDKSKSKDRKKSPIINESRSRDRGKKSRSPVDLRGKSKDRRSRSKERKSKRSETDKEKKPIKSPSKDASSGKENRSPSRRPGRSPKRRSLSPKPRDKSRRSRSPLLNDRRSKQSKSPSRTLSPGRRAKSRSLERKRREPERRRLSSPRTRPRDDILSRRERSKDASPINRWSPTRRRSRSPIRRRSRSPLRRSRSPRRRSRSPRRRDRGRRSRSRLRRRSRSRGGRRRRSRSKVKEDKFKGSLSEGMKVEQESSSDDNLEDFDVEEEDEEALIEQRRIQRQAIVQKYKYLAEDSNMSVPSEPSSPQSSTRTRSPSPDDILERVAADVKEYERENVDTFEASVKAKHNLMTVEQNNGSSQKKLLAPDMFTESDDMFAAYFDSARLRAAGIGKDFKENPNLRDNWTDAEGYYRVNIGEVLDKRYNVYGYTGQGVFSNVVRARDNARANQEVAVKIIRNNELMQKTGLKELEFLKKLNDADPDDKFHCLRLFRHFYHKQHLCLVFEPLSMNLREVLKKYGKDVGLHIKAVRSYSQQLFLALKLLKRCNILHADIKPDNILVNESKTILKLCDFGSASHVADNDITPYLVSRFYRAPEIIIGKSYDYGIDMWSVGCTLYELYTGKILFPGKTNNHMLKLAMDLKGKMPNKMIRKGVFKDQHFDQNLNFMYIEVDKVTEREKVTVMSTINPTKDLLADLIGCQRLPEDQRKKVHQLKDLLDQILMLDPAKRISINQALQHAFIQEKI
Sequence of Serine/threonine-protein kinase pim-1 (Homo sapiens) (P11309 whole entry, looked up): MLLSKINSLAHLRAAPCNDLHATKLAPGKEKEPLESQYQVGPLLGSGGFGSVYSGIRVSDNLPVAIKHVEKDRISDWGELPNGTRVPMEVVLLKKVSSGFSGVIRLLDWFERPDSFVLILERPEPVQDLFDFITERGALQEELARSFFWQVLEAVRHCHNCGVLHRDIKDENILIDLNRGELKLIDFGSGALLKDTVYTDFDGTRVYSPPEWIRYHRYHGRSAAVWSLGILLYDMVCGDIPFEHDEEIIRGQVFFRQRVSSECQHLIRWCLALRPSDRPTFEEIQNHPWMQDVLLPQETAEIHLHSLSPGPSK
Sequence of Cyclin-dependent kinase 4 (Homo sapiens) (P11802 whole entry): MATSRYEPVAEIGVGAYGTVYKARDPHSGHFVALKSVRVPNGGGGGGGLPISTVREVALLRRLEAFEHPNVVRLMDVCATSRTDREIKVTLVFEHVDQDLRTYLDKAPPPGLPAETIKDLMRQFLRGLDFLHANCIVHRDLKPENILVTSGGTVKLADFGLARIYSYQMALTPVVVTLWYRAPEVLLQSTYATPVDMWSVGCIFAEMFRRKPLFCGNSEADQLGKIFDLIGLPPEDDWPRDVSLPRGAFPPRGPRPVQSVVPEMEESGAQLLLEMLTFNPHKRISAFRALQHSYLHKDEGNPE
Sequence of Cyclin-dependent kinase 16 (Homo sapiens) (Q00536 whole entry): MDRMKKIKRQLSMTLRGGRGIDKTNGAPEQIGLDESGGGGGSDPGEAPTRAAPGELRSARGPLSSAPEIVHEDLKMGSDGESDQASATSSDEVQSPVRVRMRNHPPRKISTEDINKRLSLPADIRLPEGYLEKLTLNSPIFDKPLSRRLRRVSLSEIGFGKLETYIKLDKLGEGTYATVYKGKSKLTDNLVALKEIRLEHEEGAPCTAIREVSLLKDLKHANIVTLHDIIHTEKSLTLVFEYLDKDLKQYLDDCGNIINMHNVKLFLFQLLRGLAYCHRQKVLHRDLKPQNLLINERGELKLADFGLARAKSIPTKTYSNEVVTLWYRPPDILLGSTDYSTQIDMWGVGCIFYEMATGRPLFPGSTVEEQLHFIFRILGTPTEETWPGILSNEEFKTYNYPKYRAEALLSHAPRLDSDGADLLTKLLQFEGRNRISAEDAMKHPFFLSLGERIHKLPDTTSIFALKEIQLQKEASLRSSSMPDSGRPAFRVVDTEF
Sequence of Cyclin-dependent kinase 5 (Homo sapiens) (Q00535 whole entry, looked up): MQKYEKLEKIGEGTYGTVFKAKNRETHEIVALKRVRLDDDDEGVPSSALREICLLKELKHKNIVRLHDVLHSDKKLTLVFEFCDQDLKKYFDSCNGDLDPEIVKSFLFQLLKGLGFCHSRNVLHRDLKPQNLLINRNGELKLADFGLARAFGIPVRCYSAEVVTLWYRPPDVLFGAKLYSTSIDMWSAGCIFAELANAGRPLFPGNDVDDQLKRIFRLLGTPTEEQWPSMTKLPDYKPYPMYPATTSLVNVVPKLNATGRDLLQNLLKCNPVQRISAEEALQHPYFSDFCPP
Sequence of Mitogen-activated protein kinase 7 (Homo sapiens) (Q13164 2-816 limits assumed): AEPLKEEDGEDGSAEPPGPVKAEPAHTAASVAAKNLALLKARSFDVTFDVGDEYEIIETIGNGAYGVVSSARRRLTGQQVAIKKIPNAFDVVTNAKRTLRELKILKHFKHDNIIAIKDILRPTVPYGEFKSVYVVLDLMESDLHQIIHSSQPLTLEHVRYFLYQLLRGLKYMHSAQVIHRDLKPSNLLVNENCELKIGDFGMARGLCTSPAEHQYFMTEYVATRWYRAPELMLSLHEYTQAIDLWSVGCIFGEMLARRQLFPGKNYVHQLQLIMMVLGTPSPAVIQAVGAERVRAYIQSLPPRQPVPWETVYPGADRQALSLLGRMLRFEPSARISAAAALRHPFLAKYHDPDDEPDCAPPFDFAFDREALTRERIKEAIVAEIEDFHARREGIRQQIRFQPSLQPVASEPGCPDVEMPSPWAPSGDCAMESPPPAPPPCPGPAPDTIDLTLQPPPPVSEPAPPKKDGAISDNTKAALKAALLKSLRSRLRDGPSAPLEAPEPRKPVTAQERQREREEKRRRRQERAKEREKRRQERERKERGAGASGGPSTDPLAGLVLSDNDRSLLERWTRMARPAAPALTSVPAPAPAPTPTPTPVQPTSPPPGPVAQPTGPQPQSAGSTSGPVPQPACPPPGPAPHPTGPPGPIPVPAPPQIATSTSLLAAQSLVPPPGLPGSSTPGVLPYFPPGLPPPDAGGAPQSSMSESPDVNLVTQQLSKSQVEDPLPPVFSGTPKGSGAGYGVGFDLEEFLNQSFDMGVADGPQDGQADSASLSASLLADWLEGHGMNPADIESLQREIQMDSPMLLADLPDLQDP

| Structure (SMILES) | Ki [6] [nM] | IC50 [11] [nM] | Ki [13] [nM] | IC50 [16] [nM] | other results |
| --- | --- | --- | --- | --- | --- |
| NC(=O)c1cc2c(-c3ccc(C(=O)NCc4cccc(O)c4)s3)cccc2s1 | 73 | – | 370 | – | – |
| NC(=O)c1cc2c(-c3ccc(C(=O)NCC4CC4)s3)cccc2s1 | 95.1 | – | 980 | – | – |
| NC(=O)c1cc2c(-c3ccc(C(=O)NCc4ccccc4N)s3)c(Cl)ccc2s1 | 36.2 | 700 | 577 | 1700 | – |
| NC(=O)c1cc2c(-c3ccc(C(=O)NCCn4cc(CO)nn4)s3)cccc2s1 | 118 | – | 448 | – | – |
| NC(=O)c1cc2c(-c3ccc(C(=O)NCc4ccccc4O)s3)cccc2s1 | 9.9 | 3400 | 65.3 | 4400 | – |
| NC(=O)c1cc2c(-c3ccc(C(=O)NCc4ccccc4O)s3)c(Cl)ccc2s1 | 85.3 | – | 1180 | – | – |
| NC(=O)c1cc2c(-c3ccc(C(=O)NCc4cccc(N)c4)s3)c(Cl)ccc2s1 | 93.4 | – | 1450 | – | – |
| NC(=O)c1cc2c(-c3ccc(C(=O)NCc4ccccc4N)s3)cccc2s1 | 67.8 | 800 | 238 | 1100 | Ki [18]: 1300 nM; Activity (HeLa [19]): Active; viability at 30 µM (HeLa [20]): > 75%; inhibition [21]: 38% |
| NC(=O)c1cc2c(-c3ccc(C(=O)NCc4ccccc4)s3)cccc2s1 | 56.9 | 4300 | 278 | 4600 | – |
| NC(=O)c1cc2c(-c3ccc(C(=O)N[C@H](CO)Cc4ccccc4)s3)cccc2s1 | 101 | – | 730 | – | – |
| NC(=O)c1cc2c(-c3ccc(C(=O)NCc4cccc(Cl)c4)s3)cccc2s1 | 359 | – | 4400 | – | – |
| NC(=O)c1cc2c(-c3ccc(C(=O)NCc4ccc(N)cc4)s3)cccc2s1 | 26.8 | 3600 | 187 | 2700 | – |
| NC(=O)c1cc2c(-c3ccc(C(=O)NCc4cccc(N)c4)s3)ccc(F)c2s1 | 491 | – | 2310 | – | – |

The remaining compounds from weak to strong by Ki [6], led by results:

| Ki [6] [nM] | IC50 [11] [nM] | Ki [13] [nM] | IC50 [16] [nM] | Structure (SMILES) | other results |
| --- | --- | --- | --- | --- | --- |
| 178 | – | 1100 | – | NC(=O)c1cc2c(-c3ccc(C(=O)NC4CCOCC4)s3)cccc2s1 | – |
| 160 | – | 670 | – | NC(=O)c1cc2c(-c3ccc(C(=O)NC4CC4)s3)cccc2s1 | – |
| 119 | – | 660 | – | NC(=O)c1cc2c(-c3ccc(C(=O)NCc4cccc(N)c4)s3)cccc2s1 | – |
| 105 | – | 1130 | – | NC(=O)c1cc2c(-c3ccc(C(=O)NCc4cccc(O)c4)s3)c(Cl)ccc2s1 | – |
| 89.5 | – | 814 | – | NC(=O)c1cc2c(-c3cc(N)c(C(=O)NC4CC4)s3)cccc2s1 | – |
| 85.9 | 1800 | 642 | 2000 | NC(=O)c1cc2c(-c3ccc(C(=O)NCc4ccnc(Cl)c4)s3)cccc2s1 | inhibition [1]: > 35%; inhibition [2]: > 35%; inhibition [3]: > 35%; inhibition [4]: > 35%; inhibition [5]: > 35%; inhibition [7]: > 35%; inhibition [8]: > 35%; inhibition [9]: > 35%; inhibition [10]: > 35%; inhibition [12]: > 35%; inhibition [14]: > 35%; inhibition [15]: > 35%; inhibition [17]: > 35% |
